Tests used:
[1] = Hydroxyapatite (HA) binding assay, HPLC of supernatant; details: after 60 minutes of incubation with HA
Experimental: To analyze the reduction in peak height due to HA binding, 100 μL of supernatant was withdrawn at predetermined time points and analyzed by HPLC.

MC3T3-E1 cells = test: Alkaline phosphatase activity assay (p-nitrophenyl phosphate) in osteoblasts; assay type: cell-based; details: 5 μM; osteogenic media; without rhBMP-2
Experimental: A p-nitrophenyl phosphate assay was performed for alkaline phosphatase activity (Sigma-Aldrich) and normalized to day-3 cells grown in osteogenic media and α-MEM media. Assays were performed in triplicate with two independent repeats.

[2] = tested on: J774.2 monocyte macrophage lineage cells; test: In vitro protein prenylation assay (mevalonate pathway); assay type: cell-based; details: 25 μM or equimolar concentration; 24 hours
Experimental: The assay used was as described by Ali N et al., Small GTPases 6(4):202-11 (2015). Briefly, this involved incubation of cells with the compounds for 24 hours at increasing doses of drugs and then an in vitro prenylation assay being performed on protein extracts. Immunoblotting (western blotting) was carried out to identify an exemplar unprenylated protein, with a band indicating drug activity affecting the mevalonate pathway.

cultured cells = details: Schindeler et al. 2015; cited from earlier work

SMILES	Reduction in peak height on HA incubation (in words) [1]	Alkaline phosphatase expression / osteogenic potential, compound alone (MC3T3-E1 cells)	Effect on protein prenylation (unprenylated protein band, western blot) [2]	Pro-osteogenic activity, potentiation of rhBMP-2 (cultured cells)
CCCCCN(CCCCC)CCC[C@@H](C)[C@H]1CC[C@H]2[C@@H]3[C@H](OCCCN)C[C@@H]4C[C@H](OCCCN)CC[C@]4(C)[C@H]3CC(OCCCN)[C@]12C (some centres unmarked) [CSA-90]	no, or very low, reduction in peak height	increased alkaline phosphatase expression	did not induce a noticeable or comparable protein prenylation effect	pro-osteogenic activity
NCCCC(O)(P(=O)(O)O)P(=O)(O)O [alendronate]	–	–	potent effect on protein prenylation	–

— patent US20220273673A1, “BONE-BINDING COMPOUNDS” (BRIGHAM YOUNG UNIVERSITY, priority 2019, published 2022)
